Experimental data as given in patent US11439622B2 (OXFORD UNIVERSITY INNOVATION LIMITED, priority 2015, dated 2022).

Columns and labels:
Type in all cases: biochemical
[1] = target: VIM-2 (Veronese metallo-β-lactamase-2) (Escherichia coli, UniProt Q5U7L7); assay: Enzyme inhibition assay, VIM-2; conditions: read-out: pIC50 VIM-2 (converted)
Protocol: (§1) The biological activity of the compounds of the present invention was tested using standard assay protocols.^7 The following representative enzymes NDM-1 (New Delhi metallo-β-lactamase-1), IMP-1 (Imipenemase-1) and VIM-2 (Veronese metallo-β-lactamase-2) were selected from different clinically relevant B1 metallo-β-lactamases.

[2] = target: IMP-1 (Imipenemase-1) (Serratia marcescens, UniProt P52699); assay: Enzyme inhibition assay, IMP-1; conditions: read-out: pIC50 IMP-1 (converted)
Protocol: as §1

[3] = target: NDM-1 (New Delhi metallo-β-lactamase-1) (Klebsiella pneumoniae, UniProt C7C422); assay: Enzyme inhibition assay, NDM-1; conditions: read-out: pIC50 NDM-1 (converted)
Protocol: as §1

NDM-1 (New Delhi metallo-β-lactamase-1), sequence (C7C422 29-270, looked up, species assumed): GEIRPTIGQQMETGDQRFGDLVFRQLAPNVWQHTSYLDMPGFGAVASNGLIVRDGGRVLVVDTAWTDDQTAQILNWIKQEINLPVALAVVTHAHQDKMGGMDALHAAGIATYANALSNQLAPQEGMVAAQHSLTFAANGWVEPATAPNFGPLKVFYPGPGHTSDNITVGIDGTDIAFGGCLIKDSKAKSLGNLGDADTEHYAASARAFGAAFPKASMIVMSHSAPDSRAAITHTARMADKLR
IMP-1 (Imipenemase-1), sequence (P52699 19-246, looked up, species assumed): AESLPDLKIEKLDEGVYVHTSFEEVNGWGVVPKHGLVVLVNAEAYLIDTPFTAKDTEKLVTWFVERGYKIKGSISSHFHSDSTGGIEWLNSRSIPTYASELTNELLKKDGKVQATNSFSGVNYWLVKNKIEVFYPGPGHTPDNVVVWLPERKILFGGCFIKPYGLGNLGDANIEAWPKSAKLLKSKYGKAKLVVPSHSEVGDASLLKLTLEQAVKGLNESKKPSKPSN

Row | IC50 [1] [nM] | IC50 [2] [nM] | IC50 [3] [nM] | Compound
1 | 398 | 7940 | 50.1 | Cc1cccc2c(-c3ccc(OC(F)(F)F)cc3)c(C(=O)O)[nH]c12 [Example 2, 7-methyl-3-(4-(trifluoromethoxy)phenyl)-1H-indole-2-carboxylic acid]
2 | < 5.01 | 5010 | 39.8 | Cc1cccc2c(-c3cc(Cl)cc(Cl)c3)c(C(=O)O)[nH]c12 [Example 3, 3-(3,5-dichlorophenyl)-7-methyl-1H-indole-2-carboxylicacid]
3 | 631 | 12600 | 63.1 | Cc1cccc2c(-c3ccncc3)c(C(=O)O)[nH]c12 [Example 4, 7-methyl-3-(pyridin-4-yl)-1H-indole-2-carboxylic acid]
4 | 100 | 7940 | 31.6 | Cc1cccc2c(-c3ccc(C(N)=O)cc3)c(C(=O)O)[nH]c12 [Example 5, 3-(4-carbamoylphenyl)-7-methyl-1H-indole-2-carboxylic acid]
5 | 200 | 7940 | 39.8 | Cc1cccc2c(-c3ccc(C#N)cc3)c(C(=O)O)[nH]c12 [Example 7, 3-(4-cyanophenyl)-7-methyl-1H-indole-2-carboxylic acid]
6 | 251 | 25100 | 79.4 | Cc1cccc2c(-c3ccc([N+](=O)[O-])cc3)c(C(=O)O)[nH]c12 [Example 8, 7-methyl-3-(4-nitrophenyl)-1H-indole-2-carboxylic acid]
7 | 251 | 7940 | 50.1 | COc1ccc(-c2c(C(=O)O)[nH]c3c(C)cccc23)cc1 [Example 9, 3-(4-methoxyphenyl)-7-methyl-1H-indole-2-carboxylic acid]
8 | 200 | 7940 | 25.1 | Cc1cccc2c(-c3ccc(Br)cc3)c(C(=O)O)[nH]c12 [Example 10, 3-(4-bromophenyl)-7-methyl-1H-indole-2-carboxylic acid]
9 | 316 | 12600 | 31.6 | Cc1cccc2c(-c3ccc(C(F)(F)F)cc3)c(C(=O)O)[nH]c12 [Example 11, 7-methyl-3-(4-(trifluoromethyl)phenyl)-1H-indole-2-carboxylic acid]
10 | 1580 | 10000 | 12.6 | Cc1cccc2c(-c3ccc(N4CCOCC4)cc3)c(C(=O)O)[nH]c12 [Example 13, 7-methyl-3-(4-morpholinophenyl)-1H-indole-2-carboxylic acid]
11 | 126 | 15800 | 25.1 | Cc1cccc2c(-c3cccc([N+](=O)[O-])c3)c(C(=O)O)[nH]c12 [Example 15, 7-methyl-3-(3-nitrophenyl)-1H-indole-2-carboxylic acid]
12 | 794 | 12600 | 50.1 | Cc1cccc2c(-c3cccc(S(C)(=O)=O)c3)c(C(=O)O)[nH]c12 [Example 16, 7-methyl-3-(3-(methylsulfonyl)phenyl)-1H-indole-2-carboxylic acid]
13 | 501 | > 100000 | 200 | Cc1cccc2c(-c3cccc(N(C)C)c3)c(C(=O)O)[nH]c12 [Example 17, 3-(3-(dimethylamino)phenyl)-7-methyl-1H-indole-2-carboxylic acid]
14 | 50.1 | 2000 | 20 | Cc1cccc2c(-c3cccc(Br)c3)c(C(=O)O)[nH]c12 [Example 18, 3-(3-bromophenyl)-7-methyl-1H-indole-2-carboxylic acid]
15 | 100 | 5010 | 31.6 | Cc1cccc2c(-c3ccc4[nH]ncc4c3)c(C(=O)O)[nH]c12 [Example 19, 3-(1H-indazol-5-yl)-7-methyl-1H-indole-2-carboxylic acid]
16 | 200 | 79400 | 126 | COc1ccccc1-c1c(C(=O)O)[nH]c2c(C)cccc12 [Example 20, 3-(2-methoxyphenyl)-7-methyl-1H-indole-2-carboxylic acid]
